According to patent publication US20070026465A1, “Method for detecting GAD65 autoreactive T cells newly diagnosed type1 diabetic patients and in the prediabetic period” (priority 2005, published 2007):
Where “and” joins values, the source holds several entries; their conditions need not be identical. Equal entries are not always repeated.

What was measured:
Format in all cases: cell-based, human
[1] = system: CD8+/GAD65 reactive lymphocytes of a T1D patient; test: Early-late apoptosis (Annexin V / propidium iodide) in peptide stimulated PBMC
Protocol: At day 4 and day 6 from the beginning of the culture, 1×10^6 cells stimulated with the GAD65 peptide according to the above mentioned protocols were washed in the same washing phosphate buffer as described above and resuspended in the residual volume of approximately 50 μl. 1 μl PE-labelled GAD65 tetramer was used per staining procedure. Cells were then incubated with biotinylated anti-human CD8 MoAb (1:10 dilution, Becton Dickinson) in ice, for at least 30 min, in the dark. They were then washed with washing buffer by centrifugation at 1500 rpm for 5 min at room temperature. 5 μl of streptavidin-(Cy5) conjugate was then added for 30 min at room temperature, in the dark. Cells were then washed in ice cold PBS (2% FBS) by centrifugation at 1500 rpm for 5 min at room temperature. Cell pellet was then suspended in 500 μl of phosphate buffer. 10 μl of cold media binding reagent (Calbiochem, San Diego, Calif., USA) and 1.25 μl of Annexin V-FITC conjugate (Calbiochem) were added according to manufacturer's instructions. […] Staining was then immediately achieved and analysed by flow cytometry. […] Cells were evaluated as necrotic when stained with propidium iodide but negative for Annexin V, cells were evaluated as late apoptotic when propidium iodide positive and binding Annexin V, early apoptotic when propidium iodide negative and Annexin V positive and viable when negative for both stainings.

[2] = system: PBMC of healthy normal controls; test: T cell activation (CD69 staining) in stimulated PBMC, healthy controls; settings: GAD65 peptide treated PBMC, day 6;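 also: GAD65 peptide 10 to 30 µg/ml in culture medium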
Protocol: (§1) PBMC were separated from 5-10 ml heparinized peripheral blood by Ficoll gradient centrifugation (Histopaque, Sigma-Aldrich, St. Luis, Mo., USA). […] This washing step was introduced in the method to remove the GAD65 peptide and therefore reduce the risk of aspecificities in the subsequent procedure of tetramer binding. […] Cells were then harvested and processed for tetramer staining and flow cytometric analysis.
(§2) On day 4 or day 6 from the beginning of culture, 1×10^6 cells were allocated for staining. They were washed by centrifugation at 1500 rpm for 5 min at room temperature in wash buffer [0.1% sodium azide, 2% FBS in PBS] then resuspended in the residual volume (approximately 50 μl). 1 μl of phycoerythrin (PE) labelled GAD65 tetramer was added and incubated in ice for 30^+ min in the dark. […] Cells were then washed twice in phosphate buffer and their staining achieved using a Beckton Dickinson FACSCalibur flow cytometer and analysed with the CellQuest software program. T cell activation was evaluated by staining cells with […] in different multiple staining experiments. […]

[3] = system: PBMC of newly diagnosed T1D patients; test: GAD65 HLA class I tetramer staining and flow cytometry of stimulated PBMC, T1D patients; design: % CD3+/CD8+/GAD65 reactive T cells, average / % CD3+/CD8+/GAD65 reactive T cells: concentration or dose not given beside the values
[4] = system: PBMC of newly-diagnosed T1D patients; test: T cell activation (CD69 staining) in stimulated PBMC, T1D patients; settings: GAD65 peptide treated PBMC, day 6;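 also: GAD65 peptide 10 to 30 µg/ml in culture medium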
Protocol: as §1, §2

[5] = system: PBMC of healthy control individuals; test: GAD65 HLA class I tetramer staining and flow cytometry of stimulated PBMC, healthy controls; design: % CD3+/CD8+/GAD65 reactive T cells, average / % CD3+/CD8+/GAD65 reactive T cells: concentration or dose not given beside the values

VMNILLQYV [GAD65 peptide]
apoptosis (Annexin V) of CD8+/GAD65 reactive lymphocytes ([1]; T1D patient, day 4 of culture with the GAD65 peptide (FIG. 9 E-F)): shows signs of apoptosis | population of Annexin V positive cells ([1]; same samples, day 6 of GAD65 peptide treatment (FIG. 10)): no longer detectable | % CD69+/CD3+/CD8+ T cells, average ([2]; average of normal controls): 12.9% | % CD69+/CD3+/CD8+ T cells ([2]; individual normal controls): 2.1% and 0.75% and 13.51% and 17% and 26% and 13.4% and 18% (2×) and 19% and 1.7% | % CD3+/CD8+/GAD65 reactive T cells, average ([3]; GAD65 treated PBMC, average of 22 T1D patients, day 6): 30.0% | % CD3+/CD8+/GAD65 reactive T cells ([3]; GAD65 treated PBMC, individual T1D patients, day 6 of culture): 73% and 17% and 12.5% and 14.08% and 1% (2×) and 19% and 98% and 85% and 68% and 22% and 70% and 82% and 21% and 1.35% and 2.64% and 0.81% and 3.19% and 58% and 2.59% and 2.28% and 6.39% | Dot Plot pattern of CD8 expression of CD8+ GAD65 reactive T cells ([3]; T1D patients after GAD65 peptide stimulation, not seen in normal controls): peculiar pattern of low CD8 expression | percentage of CD3+/CD8+/GAD65 reactive T cells compared to IL-2 stimulation ([3]; one T1D patient non-responding at day 6, 2 days peptide then 2 days IL-2, analysis at day 4 (FIG. 8)): significant increase | % CD69/CD3/CD8 positive T cells, average ([4]; average of T1D patients): 18.9% | % CD69/CD3/CD8 positive T cells ([4]; individual T1D patients): 13.5% and 10.94% and 24% and 39% and 28% (2×) and 42% and 18% and 4.63% and 1.5% and 3.2% and 20% and 9.87% and 22% | increase of the population of CD3+/CD8+/GAD65 reactive T cells (specificity of the response) [5]: no significant increase | % CD3+/CD8+/GAD65 reactive T cells, average ([5]; GAD65-treated PBMC, average of 22 normal controls, day 6): 0.9% | % CD3+/CD8+/GAD65 reactive T cells ([5]; GAD65-treated PBMC, individual normal controls, day 6 of culture): 0.37% and 0.42% and 2% and 0.09% and 0.97% and 0.6% and 8% and 1.21% and 0.25% and 0.9% and 1.03% and 0.49% and 0.23% (2×) and 0.03% and 0.21% and 0.11% and 0.13% and 0.14% and 0.17% and 0.86% and 0.57% | percentage of CD8+/GAD65 reactive lymphocytes ([5]; healthy control donor, day 4, after GAD65 peptide stimulation (FIG. 9 B-C)): very low
